Source: paper PMC8928955, “Assessment of Bioavailability after In Vitro Digestion and First Pass Metabolism of Bioactive Peptides from Collagen Hydrolysates” (Current Issues in Molecular Biology, 2021)
Read-outs that look alike come from different tables or passages of the source. Non-standard residues stand in square brackets, D forms with d. Residues, ends and D or L forms follow the SMILES beside them. Hyp = O=C(O)[C@@H]1C[C@@H](O)CN1

Experiments:
Caco-2 cells = settings: cited from earlier work
[1] = Bioavailability after first pass metabolism in HIEC-6/HepG2 co-culture; settings: human
Experimental: (§1) A HIEC-6/HepG2 cell co-culture system was used to determine the bioavailability of targeted BAPs from CHs after digestion (Figure 1). HIEC-6 cells and HepG2 were cultured separately but then later combined in a transwell system using polyester (PET) ThinCerts (Greiner Bio-One, Cat no. 662641, Monroe, NC, USA) and corresponding 24 multiwell cell culture plates (Greiner Bio-One, Cat no. 662160, Monroe, NC, USA). […] HIEC-6 cells were seeded onto ThinCerts at 1 × 10^5 cells/well. The medium was changed every 2 days and cells were grown for a total of 8–9 days. […] HepG2 cells were then added to the basolateral side of the transwell (1 million cells/mL). […] At time 0, the apical medium was replaced with media containing 2 mg/mL reconstituted freeze-dried (FD) CH digesta (either CH-GL and CH-OPT), or only media (blank). The co-culture and treatments were incubated for 2 h at 37 °C, 5% CO2. After 2 h, the inserts containing HIEC-6 cells were removed, and the plates containing HepG2 cells were incubated for another 3 h. Samples were taken from the apical and basolateral sides at times 0, 2 and 5 h, and microcentrifuged at 2000 rpm for 15 min. The supernatant was collected and used for subsequent peptide analysis (see Section 2.7). Three independent experiments assessing bioavailability were completed. Controls included inserts without seeded cells (TEER control) and seeded wells with no CHs treatment (only media; negative control).
(§2) Samples were purified from cellular and protein debris by adapting the use of Amicon® Ultra-0.5 Centrifugal Filter Devices (Millipore, UFC501096, Burlington, Massachusetts, USA). Samples from cell culture were processed as per the manufacturer’s instructions, however, the filtrate (comprising of peptides) was not discarded and instead used for analysis. A CE system (Capel 205M; Lumex Instruments, Fraserview Place, BC) was used for the targeted quantification of 5 peptides (Gly-Pro, Hyp-Gly, Ala-Hyp, Pro-Hyp, Gly-Pro-Hyp). The instrument was set for 20 °C and the separation capillary (Molex, 2000019, Lisle, Illinois, US) was similar to previous CE methods for collagen analysis [36]; 60 cm in total length, 53 cm effective length, and 75 µm inside diameter. Injections were completed using pressure (30 mbar for 10 s) at 0 kV and analysis was completed at 20 kV using 0 mbar for 1199 s at 205 nm. A 0.1 M phosphate buffer (pH 2.4) was used for rinsing and as running buffer. Filtered samples were diluted with running buffer before injection. Before sample injection, the capillary was rinsed with MilliQ water, 0.5 M NaOH and running buffer, each for 5 min. The electropherograms were processed to determine peak area using the software Elforun (Lumex Instruments Canada, Version 4.2.4, Mission, BC, Canada). Quantification of each peptide, based on peak area, was performed using external standards and corresponding calibration curves, where the linearity was assessed by the coefficients of determination, R^2. The mean of three measurements for each treatment was taken.
(§3) Bioavailability, after first pass metabolism, was expressed as a percentage of final and initial peptide digesta values, as described in Sadeghi Ekbatan et al. (2018) [8]. Bioavailability (%) = Peptide content after HepG2 incubation (Basolateral 5 h)/Initial amount of peptide (Apical 0 h) × 100

HepG2 cells [2] = test: Hepatic first pass effect on transported peptides after HepG2 incubation; settings: basolateral 5 h as percentage of basolateral 2 h, mean ± SEM
Experimental: as §1
(§4) Samples were purified from cellular and protein debris by adapting the use of Amicon® Ultra-0.5 Centrifugal Filter Devices (Millipore, UFC501096, Burlington, Massachusetts, USA). Samples from cell culture were processed as per the manufacturer’s instructions, however, the filtrate (comprising of peptides) was not discarded and instead used for analysis. A CE system (Capel 205M; Lumex Instruments, Fraserview Place, BC) was used for the targeted quantification of 5 peptides (Gly-Pro, Hyp-Gly, Ala-Hyp, Pro-Hyp, Gly-Pro-Hyp). […] Injections were completed using pressure (30 mbar for 10 s) at 0 kV and analysis was completed at 20 kV using 0 mbar for 1199 s at 205 nm. A 0.1 M phosphate buffer (pH 2.4) was used for rinsing and as running buffer. Filtered samples were diluted with running buffer before injection. Before sample injection, the capillary was rinsed with MilliQ water, 0.5 M NaOH and running buffer, each for 5 min. The electropherograms were processed to determine peak area using the software Elforun (Lumex Instruments Canada, Version 4.2.4, Mission, BC, Canada). Quantification of each peptide, based on peak area, was performed using external standards and corresponding calibration curves, where the linearity was assessed by the coefficients of determination, R^2. The mean of three measurements for each treatment was taken.
(§5) Hepatic first pass effect (%) was calculated as:Hepatic effect (%) = Peptide content after incubation with HepG2 (Basolateral 5 h)/Content of peptide available for liver metabolism (Basolateral 2 h) × 100

[3] = Peptide transport and apparent permeability across the HIEC-6 intestinal layer of a HIEC-6/HepG2 transwell co-culture; settings: human; for Papp A→B at 2 h: Apparent permeability coefficient (Papp), mean ± SEM
Experimental: as §1, §2
(§6) The apparent permeability coefficient (Papp) was calculated similarly to Song et al. (2020) [7], using the standard equation:Papp = ΔQ/(Δt × A × C0) where Δt is the incubation time (s), A is the surface area of the insert filter membrane (cm^2), C0 is the initial concentration of peptides in the apical compartment at time 0 h (μM), and ΔQ is the amount of peptide transported within a given period (μmol/s). The incubation timepoint (Δt) used was representative of the intestinal transport phase (2 h timepoint).

HIEC-6 cells [4] = test: as above; settings: basolateral 2 h vs apical 0 h, mean ± SEM
Experimental: as §1, §2, §6

in vitro [5] = settings: human
Experimental: as §1, §2, §3

HIEC-6 cells [6] = test system: HIEC-6 cells
Experimental: as §1, §2, §6

HepG2 cells [7] = test system: HepG2 cells
Experimental: as §1, §4, §5

HIEC-6/HepG2 co-culture = settings: human
Experimental: as §1, §2, §3

[8] = human, in vivo
in vitro [9] = settings: human, Apparent permeability coefficient (Papp)
Experimental: as §1, §2, §6

[10] = human, in vivo; cited from earlier work
[11] = Peptide bioavailability after first pass metabolism

## O=C(O)[C@@H]1C[C@@H](O)CN1C(=O)[C@@H]1CCCN1 [Pro-Hyp] (H-Pro-[Hyp]-OH; N-terminus and C-terminus assumed)
Caco-2 cells; Caco-2, LC-MS/MS, ref 15 (Sontakke et al. 2016)
  Papp: 0.13 ± 0.03 × 10^−6 cm/s
Caco-2 cells; cell model not printed at the place, ref 40 (Feng et al. 2017)
  Papp: 1.45 ± 0.17 × 10^−6 cm/s
[1]; Bioavailability (%) after first pass metabolism, CH-GL, basolateral 5 h as percentage of apical 0 h, mean ± SEM
  bioavailability at 5 h: 26.8 ± 3.97%
[1]; Bioavailability (%) after first pass metabolism, CH-OPT, basolateral 5 h as percentage of apical 0 h, mean ± SEM
  bioavailability at 5 h: 15.4 ± 2.6%
HepG2 cells [2]; CH-GL
  Hepatic effect (%) on peptide content following HepG2 incubation: 151.4 ± 24.3%
HepG2 cells [2]; CH-OPT
  Hepatic effect (%) on peptide content following HepG2 incubation: 63.63 ± 8.63%
[3]; CH-GL treatment
  Papp A→B at 2 h: 1.91 ± 0.479 ×10⁻⁶ cm/s
HIEC-6 cells [4]; CH-GL digesta 2 mg/mL apical
  Peptide transport (%) across intestinal epithelium: 19.18 ± 4.81%
HIEC-6 cells [4]; CH-OPT digesta 2 mg/mL apical
  Peptide transport (%) across intestinal epithelium: 24.15 ± 1.42%

## NCC(=O)N1CCC[C@H]1C(=O)O [Gly-Pro] (H-Gly-Pro-OH; N-terminus and C-terminus assumed)
In vitro [5]; [11]
  bioavailability at 5 h: > 32%

## C[C@H](N)C(=O)N1C[C@H](O)C[C@H]1C(=O)O [Ala-Hyp] (H-Ala-[Hyp]-OH; N-terminus and C-terminus assumed)
[1]; Average bioavailability after first pass metabolism, average
  bioavailability at 5 h: > 20%
HepG2 cells [2]; CH-GL
  Hepatic effect (%) on peptide content following HepG2 incubation: 304.9 ± 57.2%
HepG2 cells [2]; CH-OPT
  Hepatic effect (%) on peptide content following HepG2 incubation: 198.0 ± 107.6%
[3]
  Papp at 2 h: 0.725 ± 0.195 ×10⁻⁶ cm/s
[3]; CH-GL treatment
  Papp A→B at 2 h: 0.725 ± 0.195 ×10⁻⁶ cm/s
[3]; CH-OPT treatment
  Papp A→B at 2 h: 1.03 ± 0.226 ×10⁻⁶ cm/s
HIEC-6 cells [4]; CH-GL digesta 2 mg/mL apical
  Peptide transport (%) across intestinal epithelium: 9.27 ± 2.49%
HIEC-6 cells [4]; CH-OPT digesta 2 mg/mL apical
  Peptide transport (%) across intestinal epithelium: 26.4 ± 5.78%

## NCC(=O)N1CCC[C@H]1C(=O)N1C[C@H](O)C[C@H]1C(=O)O [Gly-Pro-Hyp] (H-Gly-Pro-[Hyp]-OH; N-terminus and C-terminus assumed)
HIEC-6 cells [6]
  Apparent permeability coefficient (Papp): no apparent permeability coefficient could be determined
HepG2 cells [7]
  Hepatic effect (%) on peptide content following HepG2 incubation: 22.32 ± 5.09%
HIEC-6/HepG2 co-culture
  Bioavailability (%) after first pass metabolism: none was observed
[8]
  Increase of plasma Gly-Pro-Hyp content: 162.5%
In vitro [9]
  Papp A→B at 2 h: ~9 ×10⁻⁶ cm/s
In vitro [5]; Bioavailability (%) after first pass metabolism
  bioavailability at 5 h: 12.2 ± 1.12%
Caco-2 cells; Caco-2
  Papp: 1.09 ± 0.03 × 10^−6 cm/s
[10]
  Gly-Pro-Hyp content in the plasma after 2 h: ~ 1050 µM
  Initial Gly-Pro-Hyp content in the plasma: ~ 400 µM

## O=C(O)CNC(=O)[C@@H]1C[C@@H](O)CN1 [Hyp-Gly] (H-[Hyp]-Gly-OH; N-terminus and C-terminus assumed)
HIEC-6 cells [6]; human, 2 h
  Apparent permeability coefficient (Papp): 5.593 ± 2.476 × 10^−6 cm/s
In vitro [9]
  Papp A→B at 2 h: 6.74 ± 1.2 ×10⁻⁶ cm/s
In vitro [5]; [11]
  bioavailability at 5 h: > 32%
Caco-2 cells; Caco-2
  Papp: 1e-05 cm/s
Caco-2 cells
  Transport (%): 22.63 ± 5.19%
